Structures are written as SMILES. Read-outs that look alike come from different tables or passages of the source. Some results are limits rather than exact numbers.

Assay [1] addresses human Werner helicase (WRN, amino acids 517-1235 with L1074F point mutation) (Homo sapiens (Human), UniProt Q14191, L1074F). The experiment in a line: WRN (BV08) ADP-Glo assay. The assay is classed as biochemical. The settings on record: human WRN (aa 517-1235, L1074F), read-out: ADP-Glo_hWRN_IC50. Summed up: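 Untagged WRN 517-1235 (L1074F), Sf9/baculovirus-expressed, 0.15 nM, preincubated 15 min with compound, then 5 μM ATP and 0.1 nM annealed DNA duplex added; 60 min at 25 °C in Bicine pH 7.5, 1 mM MgCl2, 1% DMSO. ADP-Glo luminescence; % inhibition vs DMSO and 20 μM NSC-617145 controls, four-parameter IC50 fit.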
(In general: ADP-Glo first removes unused ATP, then detects ADP through luciferase.)

In assay [2] the test system is p21 induction in HCT 116 cells. The experiment in a line: p21 induction in cells (In-Cell Western, p21/GAPDH ratio). The assay is classed as cell-based. As to conditions: 24 h compound incubation, read-out: p21_EC50. In outline: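 HCT 116 cells treated 24 h at 37° C with 11-point, 2-fold dilutions typically from 10 μM, in duplicate. Fixed cells co-stained for p21 (800 nm) and GAPDH (700 nm) by In-Cell Western. p21/GAPDH ratio normalised between DMSO and reference WRN inhibitor controls, and EC50 obtained by nonlinear regression.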

human Werner helicase (WRN, amino acids 517-1235 with L1074F point mutation), sequence (Q14191 other isoform, or with tags, fused parts or gaps L1074F (already in the parent)): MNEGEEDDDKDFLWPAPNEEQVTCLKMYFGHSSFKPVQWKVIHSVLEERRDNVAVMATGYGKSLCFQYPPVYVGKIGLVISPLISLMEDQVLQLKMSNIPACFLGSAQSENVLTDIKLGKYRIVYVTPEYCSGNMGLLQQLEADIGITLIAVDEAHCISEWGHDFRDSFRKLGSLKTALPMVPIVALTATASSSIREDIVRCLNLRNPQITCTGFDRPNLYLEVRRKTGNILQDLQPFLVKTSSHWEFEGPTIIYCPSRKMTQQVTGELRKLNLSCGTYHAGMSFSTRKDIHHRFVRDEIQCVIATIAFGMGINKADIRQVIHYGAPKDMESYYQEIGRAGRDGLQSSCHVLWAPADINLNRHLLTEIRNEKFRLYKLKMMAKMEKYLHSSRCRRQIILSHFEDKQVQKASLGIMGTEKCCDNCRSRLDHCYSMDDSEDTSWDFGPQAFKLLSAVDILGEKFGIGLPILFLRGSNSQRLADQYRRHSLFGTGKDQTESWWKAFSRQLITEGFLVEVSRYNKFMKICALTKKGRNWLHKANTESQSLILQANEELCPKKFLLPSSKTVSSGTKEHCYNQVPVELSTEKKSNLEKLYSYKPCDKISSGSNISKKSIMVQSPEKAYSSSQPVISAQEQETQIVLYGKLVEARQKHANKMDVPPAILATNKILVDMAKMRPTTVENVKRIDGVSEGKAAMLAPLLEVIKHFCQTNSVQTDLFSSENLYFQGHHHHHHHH

As for `CCc1c(N2CCN(C(=O)c3c(OC)ncc(C)c3O)[C@H]3CC[C@@H]32)c(=O)c2nn(C3=CCOCC3)nc2n1CC(=O)NC12CC(C(C)C)(C1)C2` [Compound I-24, 2-(2-(3,6-dihydro-2H-pyran-4-yl)-5-ethyl-6-((1S,6S)-5-(4-hydroxy-2-methoxy-5-methylnicotinoyl)-2,5-diazabicyclo[4.2.0]octan-2-yl)-7-oxo-2,7-dihydro-4H-[1,2,3]triazolo[4,5-b]pyridin-4-yl)-N-(3-isopropylbicyclo[1.1.1]pentan-1-yl)acetamide], the IC50 in assay [1] lay in the range of 5 to 50 nM. Moreover, the EC50 in assay [2] (Homo sapiens) was no more than 500 nM.

Turning to `CCc1c(N2CCN(C(=O)c3c(OC)ncc(Cl)c3O)[C@H]3CC[C@@H]32)c(=O)c2nn(C3=CCOCC3)nc2n1CC(=O)NC12CC(C3CC3)(C1)C2` [Compound I-213, 2-{6-[(1S,6S)-5-(5-chloro-4-hydroxy-2-methoxypyridine-3-carbonyl)-2,5-diazabicyclo[4.2.0]octan-2-yl]-2-(3,6-dihydro-2H-pyran-4-yl)-5-ethyl-7-oxo-2H,4H,7H-[1,2,3]triazolo[4,5-b]pyridin-4-yl}-N-{3-cyclopropylbicyclo[1.1.1]pentan-1-yl}acetamide], the IC50 in assay [1] is 5 to 50 nM. The EC50 in assay [2] (Homo sapiens) lay in the range of 2000 to 5000 nM.

Take `CCc1c(N2CCN(C(=O)c3cccc4ncoc34)[C@H]3CC[C@@H]32)c(=O)c2nn(C3=CCOCC3)nc2n1CC(=O)NC12CC(C(C)C)(C1)C2` [Compound I-52, 2-{6-[(1S,6S)-5-(1,3-benzoxazole-7-carbonyl)-2,5-diazabicyclo[4.2.0]octan-2-yl]-2-(3,6-dihydro-2H-pyran-4-yl)-5-ethyl-7-oxo-2H,4H,7H-[1,2,3]triazolo[4,5-b]pyridin-4-yl}-N-[3-(propan-2-yl)bicyclo[1.1.1]pentan-1-yl]acetamide]: the IC50 in assay [1] lay within 5 to 50 nM. Also, the EC50 in assay [2] (Homo sapiens) was 500 to 2000 nM.

Take `CCc1c(N2CCN(C(=O)c3ncnc(C)c3O)[C@H]3CC[C@@H]32)c(=O)c2nn(-c3ccnc(OC)c3)nc2n1CC(=O)NC12CC(C(C)C)(C1)C2` [Compound I-14, 2-(5-ethyl-6-((1S,6S)-5-(5-hydroxy-6-methylpyrimidine-4-carbonyl)-2,5-diazabicyclo[4.2.0]octan-2-yl)-2-(2-methoxypyridin-4-yl)-7-oxo-2,7-dihydro-4H-[1,2,3]triazolo[4,5-b]pyridin-4-yl)-N-(3-isopropylbicyclo[1.1.1]pentan-1-yl)acetamide]: in assay [1], the IC50 lay in the range of 5 to 50 nM. Further, the EC50 in assay [2] (Homo sapiens) was no more than 500 nM.

Turning to `CCc1c(N2CCN(C(=O)c3c(OC)ccnc3OC)[C@H]3CC[C@@H]32)c(=O)c2nn(C3=CCOCC3)nc2n1CC(=O)NC12CC(C(C)C)(C1)C2` [Compound I-191, 2-[2-(3,6-dihydro-2H-pyran-4-yl)-6-[(1S,6S)-5-(2,4-dimethoxypyridine-3-carbonyl)-2,5-diazabicyclo[4.2.0]octan-2-yl]-5-ethyl-7-oxo-2H,4H,7H-[1,2,3]triazolo[4,5-b]pyridin-4-yl]-N-[3-(propan-2-yl)bicyclo[1.1.1]pentan-1-yl]acetamide], in assay [1], the IC50 was 5 to 50 nM. Moreover, the EC50 in assay [2] (Homo sapiens) was no more than 500 nM.

With `CCc1c(N2CCN(C(=O)c3c(OC(F)F)ncc(C)c3O)CC2)c(=O)c2nn(-c3ccnc(OC)c3)nc2n1CC(=O)NC12CC(C(C)C)(C1)C2` [Compound I-56, 2-(6-{4-[2-(difluoromethoxy)-4-hydroxy-5-methylpyridine-3-carbonyl]piperazin-1-yl}-5-ethyl-2-(2-methoxypyridin-4-yl)-7-oxo-2H,4H,7H-[1,2,3]triazolo[4,5-b]pyridin-4-yl)-N-[3-(propan-2-yl)bicyclo[1.1.1]pentan-1-yl]acetamide], in assay [1], the IC50 was 5 to 50 nM. Further, the EC50 in assay [2] (Homo sapiens) was no more than 500 nM.

For the compound `CCc1c(N2CCN(C(=O)c3ncnc(C)c3O)[C@H]3CC[C@@H]32)c(=O)c2nn(-c3ccnc(OC)c3)nc2n1CC(=O)NC1CC2(CCC2)C1OC` (stereo partly drawn) [Compound I-71, 2-{5-ethyl-6-[(1S,6S)-5-(5-hydroxy-6-methylpyrimidine-4-carbonyl)-2,5-diazabicyclo[4.2.0]octan-2-yl]-2-(2-methoxypyridin-4-yl)-7-oxo-2H,4H,7H-[1,2,3]triazolo[4,5-b]pyridin-4-yl}-N-{1-methoxyspiro[3.3]heptan-2-yl}acetamide], in assay [1], the IC50 lay within 100 to 500 nM. Besides, in assay [2] (Homo sapiens), the EC50 is greater than 5000 nM.

`CCc1c(N2CCN(C(=O)c3c(OC)ncc(OC)c3O)CC2)c(=O)c2nn(-c3ccnc(OC)c3)nc2n1CC(=O)NC12CC(C(C)C)(C1)C2` [Compound I-64, 2-{5-ethyl-6-[4-(4-hydroxy-2,5-dimethoxypyridine-3-carbonyl)piperazin-1-yl]-2-(2-methoxypyridin-4-yl)-7-oxo-2H,4H,7H-[1,2,3]triazolo[4,5-b]pyridin-4-yl}-N-[3-(propan-2-yl)bicyclo[1.1.1]pentan-1-yl]acetamide]: the IC50 in assay [1] was in the range of 5 to 50 nM. Moreover, in assay [2] (Homo sapiens), the EC50 is no more than 500 nM.

With `CCc1c(N2CCN(C(=O)c3ncnc(C)c3O)[C@H]3CC[C@@H]32)c(=O)c2nn(C3CC3)nc2n1CC(=O)Nc1ccc(C(F)(F)F)cc1Cl` [Compound I-153, N-[2-chloro-4-(trifluoromethyl)phenyl]-2-{2-cyclopropyl-5-ethyl-6-[(1S,6S)-5-(5-hydroxy-6-methylpyrimidine-4-carbonyl)-2,5-diazabicyclo[4.2.0]octan-2-yl]-7-oxo-2H,4H,7H-[1,2,3]triazolo[4,5-b]pyridin-4-yl}acetamide], the IC50 in assay [1] is no more than 5 nM. Besides, the EC50 in assay [2] (Homo sapiens) is no more than 500 nM.

Regarding `CCc1c(N2CCN(C(=O)c3c(OC)ncc([C@H]4CCOC4)c3O)CC2)c(=O)c2nn(-c3ccnc(OC)c3)nc2n1CC(=O)NC12CC(C(C)C)(C1)C2` (single isomer, unassigned) [Compound I-43], in assay [1], the IC50 was 5 to 50 nM. Also, the EC50 in assay [2] (Homo sapiens) was in the range of 500 to 2000 nM.

Consider `CCc1c(N2CCN(C(=O)c3c(OC)ncc(COC)c3O)CC2)c(=O)c2nn(-c3ccnc(OC)c3)nc2n1CC(=O)NC12CC(C(C)C)(C1)C2` [Compound I-50, 2-(5-ethyl-6-{4-[4-hydroxy-2-methoxy-5-(methoxymethyl)pyridine-3-carbonyl]piperazin-1-yl}-2-(2-methoxypyridin-4-yl)-7-oxo-2H,4H,7H-[1,2,3]triazolo[4,5-b]pyridin-4-yl)-N-[3-(propan-2-yl)bicyclo[1.1.1]pentan-1-yl]acetamide], for which the IC50 in assay [1] lay in the range of 5 to 50 nM. Besides, in assay [2] (Homo sapiens), the EC50 is 2000 to 5000 nM.

Turning to `CCc1c(N2CCN(C(=O)c3ncnc(C)c3O)[C@H]3CC[C@@H]32)c(=O)c2nn(C3=CCOCC3)nc2n1CC(=O)NC12CC(C3CC3)(C1)C2` [Compound I-31, N-{3-cyclopropylbicyclo[1.1.1]pentan-1-yl}-2-[2-(3,6-dihydro-2H-pyran-4-yl)-5-ethyl-6-[(1S,6S)-5-(5-hydroxy-6-methylpyrimidine-4-carbonyl)-2,5-diazabicyclo[4.2.0]octan-2-yl]-7-oxo-2H,4H,7H-[1,2,3]triazolo[4,5-b]pyridin-4-yl]acetamide], in assay [1], the IC50 was in the range of 5 to 50 nM. For the same compound, the EC50 in assay [2] was no more than 500 nM.

Turning to `CCc1c(N2CCN(C(=O)c3ncnc(C)c3O)[C@H]3CC[C@@H]32)c(=O)c2nn(-c3cnn(C4CC4)c3)nc2n1CC(=O)NC12CC(C3CC3)(C1)C2` [Compound I-46, 2-[2-(1-cyclopropyl-1H-pyrazol-4-yl)-5-ethyl-6-[(1S,6S)-5-(5-hydroxy-6-methylpyrimidine-4-carbonyl)-2,5-diazabicyclo[4.2.0]octan-2-yl]-7-oxo-2H,4H,7H-[1,2,3]triazolo[4,5-b]pyridin-4-yl]-N-{3-cyclopropylbicyclo[1.1.1]pentan-1-yl}acetamide], the IC50 in assay [1] was in the range of 5 to 50 nM. Also, the EC50 in assay [2] (Homo sapiens) was no more than 500 nM.

On to `CCc1c(N2CCN(C(=O)c3c(OC)ncc(C)c3O)[C@H]3CC[C@@H]32)c(=O)c2nn(-c3ccnc(OC)c3)nc2n1CC(=O)NC12CC(C(F)(F)F)(C1)C2` [Compound I-117, 2-{5-ethyl-6-[(1S,6S)-5-(4-hydroxy-2-methoxy-5-methylpyridine-3-carbonyl)-2,5-diazabicyclo[4.2.0]octan-2-yl]-2-(2-methoxypyridin-4-yl)-7-oxo-2H,4H,7H-[1,2,3]triazolo[4,5-b]pyridin-4-yl}-N-[3-(trifluoromethyl)bicyclo[1.1.1]pentan-1-yl]acetamide], for which the IC50 in assay [1] fell in the range of 5 to 50 nM. In addition, the EC50 in assay [2] (Homo sapiens) was no more than 500 nM.

For `CCc1c(N2CCN(C(=O)c3c(OC)ncc(C)c3O)CC2)c(=O)c2nn(-c3ccnc(OC)c3)nc2n1CC(=O)NC1CC2(C1)CC(F)(F)C2` [Compound I-104, N-{6,6-difluorospiro[3.3]heptan-2-yl}-2-{5-ethyl-6-[4-(4-hydroxy-2-methoxy-5-methylpyridine-3-carbonyl)piperazin-1-yl]-2-(2-methoxypyridin-4-yl)-7-oxo-2H,4H,7H-[1,2,3]triazolo[4,5-b]pyridin-4-yl}acetamide], the IC50 in assay [1] lay within 50 to 100 nM. For the same compound, the EC50 in assay [2] (Homo sapiens) was greater than 5000 nM.

Regarding `CCc1c(C2=CCN(C(=O)c3ncnc(C)c3O)CC2)c(=O)c2nn(-c3ccnc(OC)c3)nc2n1CC(=O)NC12CC(C(C)C)(C1)C2` [Compound I-79, 2-{5-ethyl-6-[1-(5-hydroxy-6-methylpyrimidine-4-carbonyl)-1,2,3,6-tetrahydropyridin-4-yl]-2-(2-methoxypyridin-4-yl)-7-oxo-2H,4H,7H-[1,2,3]triazolo[4,5-b]pyridin-4-yl}-N-[3-(propan-2-yl)bicyclo[1.1.1]pentan-1-yl]acetamide], in assay [1], the IC50 fell in the range of 5 to 50 nM. Besides, the EC50 in assay [2] (Homo sapiens) fell in the range of 500 to 2000 nM.

The record behind these values is patent US20250129069A1, “TRIAZOLO WRN INHIBITORS” (Nimbus Wadjet, Inc., priority 2023, published 2025).
